Assay results from publication PMC5515432, “A human tissue-based functional assay platform to evaluate the immune function impact of small molecule inhibitors that target the immune system” (PLoS ONE, 2017).
pIC50: −log10 of the molar value. Several values for one entry are separate records, joined by “and”; a condition that tells them apart may be missing. Equal entries are not always repeated. Entries after “also recorded” stand apart in the source; their conditions may differ. Where two headings read alike, the source gives them in different places.

Columns and labels:
[1] = test system: TLR7; experiment: TLR7 response: TLR7 agonist induced IL-6 production in PBMCs; details: for TLR7 Max inhibition: sheet 'TLR7', % maximal inhibition = 'top' of curve fit
Procedure: (§3) To evaluate TLR3 responses, frozen PBMCs were thawed in culture medium. A total of 2x10^5 PBMCs were seeded per well in a 96-well tissue culture plate for the assay. One hour following incubation with compounds at 37°C, 5% CO2, the PBMCs were treated with a PBMC donor-specific EC80 concentration of the high molecular weight Poly I:C (TLR3 ligand, Invivogen, San Diego, CA) or appropriate controls, and were allowed to incubate at 37°C, 5% CO2 for 24 hours. Twenty four hours following incubation, 120μl of the cell culture supernatant was removed from the cell culture plates and frozen at -80°C until further analysis. To evaluate TLR7 and TLR9 responses, PBMCs were thawed in culture medium, reconstituted to a concentration of 3x10^6 cells/ml, dispensed into ultra-low attachment flasks and incubated at 37°C, 5% CO2 for 24h with continuous rocking. The PBMCs were harvested from the flask, seeded at a density of 2x10^5 PBMCs/well in compound-dispensed assay plates and allowed to incubate at 37°C, 5% CO2 for 24 hours. One hour following incubation with compounds at 37°C, 5% CO2, the PBMCs were treated with a PBMC donor-specific EC80 concentration of high molecular weight CL264 (TL7 ligand, Invivogen, San Diego, CA) or ODN 2395 (TLR9 ligand, Invivogen, San Diego, CA), or appropriate controls, and were allowed to incubate at 37°C, 5% CO2 for 24 hours. Twenty four hours following incubation, 120μl of the cell culture supernatant was removed from the cell culture plates and frozen at -80°C until further analysis. The cell culture supernatants were analyzed for IP-10 or IL-6 levels using MSD kits (Meso Scale Discovery, Rockville, MD) according to manufacturer’s protocols.
(§4) The stimulant was the chemical agent that was used to elicit the response in the assay (i.e., TLR ligands in the TLR assay). We used EC80 stimulation conditions for evaluating the impact of compounds in assays with titrable stimulants. To account for donor-to-donor variability in PBMCs, we used donors that whose EC80 values were within a 3-fold range determined by dose-response experiments with the stimulants.

[2] = test system: TLR9; experiment: TLR9 response: ODN 2395 induced IL-6 production in PBMCs
Procedure: as §3, §4

[3] = test system: TLR3; experiment: TLR3 response: Poly I:C induced IP-10 production in PBMCs
Procedure: as §3, §4

[4] = test system: TLR9
Procedure: as §3, §4

[5] = test system: TLR7
Procedure: as §3, §4

[6] = test system: NK cell mediated killing of K562 cells
Procedure: (§5) A commercially available kit was used to asses NK cell killing (NK Test, Glycotope Biotechnology). Human PBMCs (effector cells) resuspended in culture medium were plated in a round bottom, sterile poly propylene 96 well plate (Corning #3359) and incubated with compounds (final DMSO concentration 0.1%) for 1 hour. Membrane labeled GFP positive K562 cells (target cells) were then added to the effector cells at a 1:50 target–effector ratio. Cells were centrifuged for 3 minutes at 120xg to ensure cell-cell contact and incubated at 37°C, 5% CO2 for 2 hours. Cells were then resuspended in propidium iodide staining solution and incubated at room temperature for 5 minutes. A total of 10,000 target cell events were acquired on a BD Fortessa flow cytometer, and the data was analyzed by FACSDiva or Flowjo.
(§6) We used EC80 stimulation conditions for evaluating the impact of compounds in assays with titrable stimulants. To account for donor-to-donor variability in PBMCs, we used donors that whose EC80 values were within a 3-fold range determined by dose-response experiments with the stimulants. For the NK cell killing assay, we used the conditions and donors that gave the best assay window (i.e., 1:50 target:effector ratio). For the T cell stimulation assay, we performed a dose-titration of αCD3 and αCD28 to determine the stimulation conditions used in this assay. […] Every assay plate contained samples that would elicit a minimal response (no stimulant), maximal response (stimulant with no compounds), compound dose-response (stimulant with compounds) and positive control (stimulant with compound that is known to inhibit the assay). We evaluated the impact of small molecule inhibitors in 8–10 different doses for every PBMC sample in every assay. The values obtained from multiple PBMC donors were compiled together to calculate the inhibitory concentrations of the compounds in a given assay.
(§7) Each assay contained samples that would elicit a minimal and a maximal response, which defined the assay window.

[7] = test system: ROS production by neutrophils in human whole blood; experiment: Phagocyte oxidative burst (Phagoburst), neutrophil ROS production in whole blood; format: cell-based; details: for IC50: sheet 'IC50 values', whole blood, 10 min, corrected for plasma protein binding, unit inferred, Assay control = DPI, read-out: PB_Neut IC50
Procedure: (§1) Phagocytic oxidative burst was assessed in whole blood samples using the Phagoburst kit (Orpegen Biopharma, #10–0200). The assay was modified to accommodate a 96 well format. Briefly, 50 μL human whole blood was mixed well with compounds (0.1% final DMSO concentration) and incubated for 30 minutes at 37°C, 5% CO2. Then, samples were incubated on ice for 5 minutes, followed by the addition of 10uL of reagent B (opsonized bacteria). Samples were then mixed well and incubated for 10 minutes in a 37°C water bath. Next, 10μL of reagent E (substrate solution) was added to the samples, mixed well and incubated for an additional 10 minutes in the 37°C water bath. Then, 150uL of reagent F (lysis solution) was added to all wells, mixed well and incubated for 20 minutes at room temperature. Samples were washed twice with reagent A and incubated with 90μL of reagent G (DNA staining solution) for 10 minutes, on ice and protected from light. The samples were analyzed in a BD Fortessa flow cytometer. Cells were gated based on Forward and Side scatter properties and high content DNA. A total of 10,000 cell events (high content DNA) were collected, analyzed using FACSDiva or Flowjo and the oxidative burst was measured by the geometric mean fluorescence intensity (GMFI) of the ROS detection dye in the assay (Figure C in S2 Fig).
(§2) Compounds were spiked at 1 μM in plasma. […] Following centrifugation, samples were analyzed using LC-MS/MS. […] A similar methodology was followed for media binding.

[8] = test system: TLR3
Procedure: as §3, §4

[9] = test system: NK cell mediated killing of K562 cells; experiment: NK cell killing function (NK Test, PBMC effectors, K562 target cells)
Procedure: as §5, §6, §7

[10] = test system: CD8+ T cell proliferation in human PBMCs; experiment: CD8+ T cell proliferation in anti-CD3 + anti-CD28 stimulated PBMCs (EdU flow cytometry, 72 h); details: for impact on CD8+ T cell proliferation: PBMC, anti-CD3 + anti-CD28, 72 h
Procedure: (§8) Peripheral blood mononuclear cells in culture media were pre-treated with compounds (0.1% final DMSO concentration) for 45 minutes at 37°C, 5% CO2 and then transferred into anti-CD3 (1 μg/mL, OKT3, eBioscience, San Diego, CA) coated plate containing soluble anti-CD28 (1 μg/mL, Fitzgerald, Acton, MA). Twenty four hours after stimulation, an aliquot of cell culture supernatant was collected and evaluated for IL-2 production (MesoScale Discovery, Rockville, MD) according to manufacturer’s instructions. The remaining culture was allowed to continue incubation for an additional 48 hours. To evaluate proliferation, Click-iT EdU Alexa Flour 647 Assay Kit (Invitrogen, Carlsbad, CA) was used according to manufacturer’s instructions, and proliferation was evaluated at 72 hours following stimulation. The cells were stained with flourochrome conjugated antibodies against CD3, CD4 and CD8 and analyzed in a BD Fortessa flow cytometer by acquiring 8–10,000 events. The data was analyzed by FACSDiva or FlowJo and reported as the percentage of EdU^+CD3^+CD4^+ and EdU^+CD3^+CD8^+ lymphocytes (Figure A in S2 Fig).
(§9) The stimulant was the chemical agent that was used to elicit the response in the assay (i.e., TLR ligands in the TLR assay). We used EC80 stimulation conditions for evaluating the impact of compounds in assays with titrable stimulants. To account for donor-to-donor variability in PBMCs, we used donors that whose EC80 values were within a 3-fold range determined by dose-response experiments with the stimulants. For the NK cell killing assay, we used the conditions and donors that gave the best assay window (i.e., 1:50 target:effector ratio). For the T cell stimulation assay, we performed a dose-titration of αCD3 and αCD28 to determine the stimulation conditions used in this assay. For the phagocyte oxidative burst assay, since we could not screen human whole blood for selecting best responders, we followed the manufacturer’s protocol on 8–10 different human whole blood samples. Every assay plate contained samples that would elicit a minimal response (no stimulant), maximal response (stimulant with no compounds), compound dose-response (stimulant with compounds) and positive control (stimulant with compound that is known to inhibit the assay). We evaluated the impact of small molecule inhibitors in 8–10 different doses for every PBMC sample in every assay. The values obtained from multiple PBMC donors were compiled together to calculate the inhibitory concentrations of the compounds in a given assay.
as §7

[11] = test system: IL-2 production by T cells in human PBMCs; experiment: T cell activation: IL-2 production in anti-CD3 + anti-CD28 stimulated PBMCs (MSD, 24 h); details: for impact on IL-2 production: PBMC, anti-CD3 + anti-CD28, 24 h; for Tcell_IL2 Max inhibition: sheet 'Tcell_IL2', % maximal inhibition = 'top' of curve fit
Procedure: as §8, §9, §7

[12] = test system: CD8+ T cell proliferation in human PBMCs
Procedure: as §8, §9, §7

[13] = test system: gene expression of stimulated human PBMCs; experiment: Nanostring mRNA profiling in the T cell stimulation assay (anti-CD3 + anti-CD28 PBMCs); format: cell-based; details: for impact on gene expression profile of stimulated PBMCs: 24 h after anti-CD3 and anti-CD28 stimulation, n = 3 donors
Procedure: Cell pellets from experiments were lysed in RLT buffer and prepared according to standard protocol recommended by NanoString Technologies. Briefly, lysates were co-incubated with capture and reporter probes (NanoString Technologies Immunology v2 Codeset) in a thermal cycler set at 65°C for 24 hours. Samples were processed and analyzed with a Generation 2 nCounter. Counts from samples were normalized using housekeeping genes scored on the Nanostring platform. Samples with counts less than 20 were excluded from further analysis. The Matlab function ttest2 was used to determine p-values for log2 fold changes, and the function agglomerative was used to perform clustering.

[14] = test system: IL-2 production by T cells in human PBMCs
Procedure: as §8, §9, §7

[15] = test system: CD4+ T cell proliferation in human PBMCs; experiment: CD4+ T cell proliferation in anti-CD3 + anti-CD28 stimulated PBMCs (EdU flow cytometry, 72 h); details: for impact on CD4+ T cell proliferation: PBMC, anti-CD3 + anti-CD28, 72 h
Procedure: as §8, §9, §7

[16] = test system: CD4+ T cell proliferation in human PBMCs
Procedure: as §8, §9, §7

[17] = test system: ROS production by monocytes in human whole blood; experiment: Phagocyte oxidative burst (Phagoburst), monocyte ROS production in whole blood; format: cell-based
Procedure: as §1, §2

[18] = human whole blood, opsonized bacteria

Cc1ccc(S(=O)(=O)/C=C/C#N)cc1 [BAY-11, BAY 11–7082]
effect on TLR7 response, IL-6 production [1]: fully inhibited this response | effect on TLR9 response, ODN 2395 induced IL-6 [2]: fully inhibited this response | effect on TLR3 response, Poly (I:C) induced IP-10 [3]: fully inhibited the response

CC(C)(C)c1nc2c3cc[nH]c(=O)c3c3cc(F)ccc3c2[nH]1 [JAK inhibitor 1]
pIC50 [4]: 7.59 | pIC50 [5]: 6.26 | pIC50 [6]: 4.18 | IC50 ([7]; opsonized bacteria): 354 nM | pIC50 [8]: 7.21

C/C1=C/C(=O)O[C@@H]2C[C@@H](CC[C@H](C)/C=C\C=C\CC1)O[C@@](O)([C@@H]1CSC(=O)N1)C2 [Latrunculin A, latrunculin A]
effect on NK cell killing activity [9]: completely inhibited

Cc1oncc1C(=O)Nc1ccc(C(F)(F)F)cc1 [Leflunomide, leflunomide]
pIC50 [4]: 7.60 and 7.59 | pIC50 [6]: 4.32

CN(Cc1cnc2nc(N)nc(N)c2n1)c1ccc(C(=O)N[C@@H](CCC(=O)O)C(=O)O)cc1 [Methotrexate]
maximal inhibition of CD8+ T cell proliferation [10]: around 30% | impact on IL-2 production [11]: marginal but variable impact | Tcell_IL2 Max inhibition [11]: 27.8 | pIC50 [12]: 7.98 | impact on gene expression profile of stimulated PBMCs ([13]; 1μM): minimal impact on restoring the gene expression profile | pIC50 [14]: 5.30 | maximal inhibition of CD4+ T cell proliferation [15]: around 30% | pIC50 [16]: 8.23

COc1c(C)c2c(c(O)c1C/C=C(\C)CCC(=O)OCCN1CCOCC1)C(=O)OC2 [Mycophenolate Mofetil, mycophenolate mofetil]
impact on CD8+ T cell proliferation [10]: inhibited | pIC50 [4]: 5.66 and 5.51 | impact on IL-2 production [11]: inhibited | Tcell_IL2 Max inhibition [11]: 49.64 | IL-2 mRNA expression ([13]; 1μM, 24 h): partially reduced | impact on gene expression profile of stimulated PBMCs ([13]; 1μM): minimal impact on restoring the gene expression profile | impact on CD4+ T cell proliferation [15]: inhibited

C[C@]12C=CC(=O)C=C1CC[C@@H]1[C@@H]2[C@@H](O)C[C@@]2(C)[C@H]1CC[C@]2(O)C(=O)CO [Prednisolone, prednisolone]
impact on CD8+ T cell proliferation [10]: did not have an impact | pIC50 [4]: 7.48 and 7.45 | impact on IL-2 production [11]: inhibited only IL-2 production | Tcell_IL2 Max inhibition [11]: 71.87 | TLR7 Max inhibition [1]: 93.77 | pIC50 [5]: 7.50 and 7.47 | IL-2 mRNA expression ([13]; 1μM, 24 h): partially reduced | IL-4 mRNA expression ([13]; 1μM, 24 h): reduced | IL-13 mRNA expression ([13]; 1μM, 24 h): reduced | impact on gene expression profile of stimulated PBMCs ([13]; 1μM): modified the gene expression profile of stimulated samples similar to that of unstimulated cells | IL-2 mRNA expression, time and dose course ([13]; three concentrations, 3h, 6h and 24h following stimulation): impacted in a time- and dose-dependent manner | pIC50 [14]: 7.12 | pIC50 [6]: 4.67 | impact on CD4+ T cell proliferation [15]: did not have an impact | effect on TLR9 response, ODN 2395 induced IL-6 [2]: dose-dependent inhibition; also recorded: potent in inhibiting TLR9 responses | pIC50 [8]: 6.04 and 6.00

CO[C@H]1C[C@@H]2CC[C@@H](C)[C@@](O)(O2)C(=O)C(=O)N2CCCC[C@H]2C(=O)O[C@H]([C@H](C)C[C@@H]2CC[C@@H](O)[C@H](OC)C2)CC(=O)[C@H](C)/C=C(\C)[C@@H](O)[C@@H](OC)C(=O)[C@H](C)C[C@H](C)/C=C/C=C/C=C/1C [Rapamycin, rapamycin]
impact on CD8+ T cell proliferation [10]: did not have an impact | impact on IL-2 production [11]: did not have an impact | TLR7 Max inhibition [1]: 72.11 | IC50 ([7]; Homo sapiens, Neutrophil, opsonized bacteria): 601 nM | reduction / maximal inhibition of neutrophil ROS production [7, 18]: 20–40% | PB_Neut Max inhibition ([7]; sheet 'PB_Neut', % maximal inhibition = 'top' of curve fit): 36.53 | impact on CD4+ T cell proliferation [15]: did not have an impact | IC50 ([17]; Homo sapiens, Monocyte, 10 min, sheet 'IC50 values', whole blood, opsonized bacteria, 10 min, corrected for plasma protein binding, unit inferred, Assay control = DPI, read-out: PB_Mono IC50): 128 nM | reduction / maximal inhibition of monocyte ROS production [17, 18]: 20–40% | PB_Mono Max inhibition ([17]; sheet 'PB_Mono', % maximal inhibition = 'top' of curve fit): 13.41

c1ccc([I+]c2ccccc2)cc1 [diphenyliodonium chloride]
effect on neutrophil ROS production [7, 18]: completely inhibit | effect on monocyte ROS production [17, 18]: completely inhibit
